Data: patent publication US8367716B2 (priority 2003, dated 2013)

Tested on: S. aureus strain DK825 adherence to HeLa cells
Assay: Epithelial cell assay (bacterial adherence to HeLa cells)
Assay type: cell-based, Staphylococcus aureus
Description: Epithelial cell assay. HeLa cells (ATCC CCL2) were grown to confluence in complete medium (10% FBS from Sigma, DMEM/F12 with glutamine from Invitrogen and 50 μg/ml gentamicin) and were trypsinized with 0.1% trypsin-EDTA. Approximately 1×10^5 HeLa cells were seeded in each well of a chamber slide and then the HeLa cells were incubated at 37° C. in 5% CO2 for at least 18 h until 85% confluent. Prior to infection, the HeLa cells were washed twice with warm PBS and then 500 μl warm FMEM/F12 was added to each well. For the bacterial adherence assay, an overnight culture of S. aureus strain DK825 was grown overnight in 5 ml LB broth at 37° C. with shaking at 250 rpm. Following incubation, 1 ml of the overnight culture was pelleted, washed twice with PBS and resuspended in 1 ml of PBS. The HeLa cells in the wells were washed twice with 500 μl of HBSS and aliquots of DMEM with the desired final concentration of c-di-GMP (0-, 2-, 20- and 200 μM) were prepared. DMEM (500 μl) containing the respective concentrations of c-di-GMP was inoculated into the wells containing HeLa cells followed by the addition of 10 μl (˜10^7 cells) S. aureus (MOI HeLa:bacteria˜1:100). The epithelial cell assay was incubated in CO2 for 45 min. Following incubation the cells were washed twice with 500 μl PBS and fixed with 2% formalin for 20 min. The cells were again washed twice with PBS and stained with Giemsa stain for 10 seconds, washed three times with PBS, then the cells covered with 40 μl of 90% glycerol in water and a cover slip was placed. The slides were observed under a light microscope (Zeiss Axioskop) at 630×mag. The level of bacterial adherence to 100 individual HeLa cells was calculated for each duplicate treatment and the average determined.

Compound: Nc1nc2c(ncn2C2OC3COP(=O)(O)OC4C(COP(=O)(O)OC3C2O)OC(n2cnc3c(=O)[nH]c(N)nc32)C4O)c(=O)[nH]1 (stereo not shown) [c-di-GMP, 3′,5′-cyclic diguanylic acid]
- effect on adherence to HeLa cells (2 μM): did not show any obvious effect
- effect on adherence to HeLa cells (20 μM): did not show any obvious effect
- reduction in adherence (200 μM): ~66%
- average adherence (200 μM, untreated 12 bacteria/cell): 4 bacteria/cell
